“Also recorded” adds a separate entry of the source. *1 amine or outer side, *2 acyl side, *3 side chain or, on linkers, in order; H or OH if unused. Where a SMILES comes first, the peptide text is derived from it. [ ]: non-standard residue; d: D form. X1 = CC(=N)NCCCC[C@H](N[*:1])C(=O)[*:2]

Data set [1] relates to VEGF. The experiment in a line: Serum VEGF ELISA in mice bearing B16-F0 melanoma tumors. In kind it is in vivo. The note with it: 5 days after single 100 μL intratumoral injection. The method, then:
Evaluation of in vivo VEGF reduction using murine B16-F0 melanoma tumor model. C57BL/6J male mice were purchased from The Jackson Laboratory. […] All experiments were performed with approval of IACUC at Baylor College of Medicine (BCM) and followed established protocols. B16-F0 melanoma cell line was purchased from American Type Culture Collection (ATCC) and maintained according to manufacturer instructions (DMEM high-glucose with 10% fetal bovine serum and 1% penicillin/streptomycin). C57BL/6J mice were injected subcutaneously (s.c.) with 3×10^5 B16-F0 cells in a single flank. Once tumors became palpable (day 7 post-inoculation) mice were injected intratumorally (i.t.) with either vehicle buffer control Hank's Balanced Salt Solution (HBSS), free L-NIL dissolved in HBSS at 20 mM, K2-MDP hydrogel at 1 wt. % (5.6 mM peptide), or L-NIL-MDP hydrogel at 1 wt. % (5.2 mM peptide, or approximately 20 mM L-NIL functional groups). All injections were done using 100 μL total injection volume.
Mice were euthanized 5 days following i.t. injections and tumor/blood were collected. […] VEGF quantification of undiluted serum was performed using a mouse VEGF Quantikine ELISA kit (R&D Systems, Minneapolis, MN) following manufacturer's instructions. […] Statistical differences were evaluated using Tukey's multiple comparisons test. […]

The nature of data set [2]: CDN drug release kinetics from hydrogels. It counts as physicochemical. The method, then:
Drug release kinetics. For release kinetics studies of CDN release from various hydrogel formulations, aliquots of CDN-loaded gel (30 μL each) were deposited into 96 well Falcon® flat bottom plates (Becton Dickinson Labware, Franklin Lakes, NJ). 30 μL gel was pipetted to generate a cylindrical puck in each well for each experiment. The pipetted gels were allowed to shear recover for approximately 5-10 min before adding 200 μL of the relevant buffer to the top of the gels (1× HBSS for all MDPs, 1× DPBS for collagen, Matrigel, 1× HBSS with 0.1 M CaCl2) for alginate, etc. according to the gelation requirements of the material). The addition of buffer was defined as t=0 for the beginning of release kinetics experiments. Table 1 summarizes the material conditions and preparation methods used for various comparative CDN delivery kinetics studies.
A Nanodrop 2000C Spectrophotometer (Thermo Scientific) was used to measure drug release by UV absorbance at 259 nm for CDN ML RR-S2 CDA, using an extinction coefficient of 24,000 M^−1cm^−1 (259 nm). Absorbance measurements were obtained by removing […] from the top of the liquid buffers above the loaded gels, over time measuring the increase in absorbance. Over the course of the first 24 hours, release of CDN was measured usually every 1-2 hours and converted to total percent released, with additional measurements also made every 24 hours for up to a week to establish when equilibrium had been reached.

For data set [3], the system named is MOC1 tumors. Nature of the data set: MOC orthotopic murine model of oral cancer (Example 9). The note with it: established 4-5 mm MOC1 tumors, single 30 μl intratumoral injection.
Experimental: MOC orthotopic murine model of oral cancer. MOC1 tumors were established by injecting 2×10^6 cells (70%:30% cells: Matrigel®Matrix) into the maxillary vestibule of the left oral cavity in C57BL/6J mice. […] Tumor growth was monitored by tumor size measurements (in diameter) taken at least two times per week using digital calipers to measure the longest dimension (single dimension). Data was then analyzed for Kaplan-Meier survival and tumor growth curves. […] Excessive tumor burden, defined as tumor diameter reaching 12 mm, tumor ulceration, or a weight loss of greater than 20% were factors that were considered for all endpoints in tumor growth and survival data.
Statistical methods. Statistical analyses were performed using Prism 7.0 (GraphPad, San Diego, CA). Statistical analyses for Kaplan-Meier survival curves were performed using the Log-rank/Mantel-Cox test. Statistical significance for tumor growth curves was determined by a two-way ANOVA test followed by selected comparison using Tukey's multiple comparison tests with multiple comparison correction. All p values were two-sided and p values less than 0.05 were considered significant.
A short description of data set [4]: Subcutaneous hydrogel implants, histology (persistence, degradation, host response). In kind it is in vivo, mice. Particulars: 3-21 days. The method, then:
Subcutaneous experiments and histology. C57BL/6J female mice were purchased from The Jackson Laboratory at age 8-12 weeks for subcutaneous characterization experiments. Mice were housed under specific pathogen-free conditions in standard temperature and lighting conditions with free access to food and water, and experiments were conducted with approval of the Institutional Animal Care and Use Committee (IACUC) at Rice University and according to NIH guidelines. Mice were injected with 100 μL MDP hydrogels in each of four separate sites in the subcutaneous space of the dorsal flank after the skin was shaved and sterilized with alcohol. At days 3, 7, 14, and 21 the mice were euthanized and the dorsal skin around the entire implant was removed, fixed overnight in 10% neutral buffered formalin, processed and paraffin embedded, and finally sectioned at […] thickness for staining using standard Masson's trichrome or hematoxylin and eosin (H&E) procedures, as well as immunohistochemical analyses (e.g., anti-nitrotyrosine IHC, or α-SMA blood vessel analysis).
Evaluation of material biocompatibility, degradation, and immune response profile in vivo was performed by histological analysis of hydrogel implants injected subcutaneously in healthy mice. […]

Data set [5] deals with MOC1 cells. The experiment in a line: Live-dead viability of MOC1 cells on L-NIL-MDP hydrogel. The note with it: cultured on hydrogel over 7 days. It counts as cell-based, mouse. As for the experimental part: Cell culture. The murine oral cancer cell line, MOC1 was provided by Dr. Ravindra Uppaluri (Dana-Farber Cancer Institute, Harvard University, Boston, MA) and maintained as previously described (Judd et al., 2012). For in vitro experiments, mouse MOC1 cells were cultured at 37° C. with 5% CO2 in media routinely used for maintaining this cell line (Judd et al., 2012). For live-dead viability studies done using 2-D culture, peptide hydrogel 70 μL in volume (thickness approximately 1.75 mm) were pipetted into the wells of Lab-Tek 16 well chamber slides (Thermo Fisher, Rochester, NY). The gels were pipetted carefully into the bottom of the wells, and the plates were gently tapped down onto the bench top before shear recovery to flatten the pipetted gels and facilitate uniform spreading of the material. After pipetting, time was allowed for the samples to shear recover (5-10 min) before the addition of 200 μL cell media and 5,000 MOC1 cells. Each time point (days 1, 3, 7) had separate slides prepared with duplicate gels. Cell media was replaced every 2 days, carefully pipetting to avoid dislodging the gel material. […] Image processing was done with NIS Elements (Nikon Instruments, Melville, NY), and Imaris Cell Counting software (Bitplane, Concord, MA) was used to quantify live-dead percentages.

For `CC(=N)NCCCC[C@H](NC(=O)[C@H](CCCCNC(C)=N)NC(=O)[C@H](CC(C)C)NC(=O)[C@H](CO)NC(=O)[C@H](CC(C)C)NC(=O)[C@H](CO)NC(=O)[C@H](CC(C)C)NC(=O)[C@H](CO)NC(=O)[C@H](CC(C)C)NC(=O)[C@H](CO)NC(=O)[C@H](CC(C)C)NC(=O)[C@H](CO)NC(=O)[C@H](CC(C)C)NC(=O)[C@H](CO)NC(=O)[C@H](CCCCNC(C)=N)NC(=O)[C@H](CCCCNC(C)=N)NC(C)=O)C(N)=O` [L-NIL-MDP] (Ac-[X1][X1]SLSLSLSLSLSL[X1][X1]-NH2), the “reduction of systemic VEGF levels (in words)” value in data set [1] is recorded as “significantly reduced systemic VEGF levels; also recorded: Significant VEGF reduction”. For the same compound, in data set [2], the “CDN release profile (in words)” value is listed as “comparable or even better controlled release”. This compound also displayed a median survival in data set [3] of 44 days. Besides, the “inflammatory reaction after injection (in words)” value in data set [4] is recorded as “does not cause a chronic inflammatory reaction”. The “viability of MOC1 cells (in words)” value in data set [5] is “high viability”.
